Test results taken from patent US20220288057A1, “CONJOINT THERAPY FOR TREATING SEIZURE DISORDERS” (XENON PHARMACEUTICALS INC., priority 2021, published 2022).
Values joined by “and” are separate entries in the source; they are usually repeats but may differ in a detail not shown here. Equal values may be shown once. Read-outs that look alike come from different tables or passages of the source.

Experiment: Terminal plasma and brain concentrations in AC-MES studies (UHPLC-MS/MS)
Format: in vivo, mouse
Details: for concentration at 0.5 h / Kp at 0.5 h / concentration at 30 min / Kp at 30 min: CF-1, mouse, in vivo
Protocol: Sample Collection and Preparation: Mice were anesthetized by isoflurane inhalation (according to SOP TECH-018) until they reached a surgical plane of anesthesia. Then a syringe (1 mL syringe with a 22 gauge needle) was inserted under the sternum into the heart (according to SOP TECH-031). Approximately 0.5 mL of blood was collected, deposited into a K2EDTA tube, and stored on ice. Animals were then euthanized by cervical dislocation. Brains were removed, placed into a pre-weighed vial, and snap frozen on dry ice. At the end of the sample collection, blood was centrifuged at 4000 rpm for 10 minutes at 4° C., and the plasma pipetted into a labeled tube. All samples were stored in a −80° C. freezer until the time of bioanalysis.
Plasma Samples: Extraction of plasma samples was carried out by protein precipitation using acetonitrile. Diluted plasma samples (50 μL) were mixed with 50 μL of internal standard (IS) solution in 1:1 acetonitrile:water (v:v) followed by addition of 200 μL of acetonitrile. Samples were vortexed for 30 seconds, centrifuged at 13,000 rpm for 20 minutes, decanted into a 96-well plate and further centrifuged at 4000 rpm for 20 minutes. The samples were analyzed by ultra-high performance liquid chromatography electrospray ionization tandem mass spectrometry (UHPLC-ESI-MS/MS) as described in the bioanalysis procedure below.
Brain Samples: Prior to extraction, pre-weighed whole brains were homogenized in 1:1 acetonitrile:water (v:v) (2 mL per mouse brain) using an IKA T18 Ultra-Turrax Homogenizer at the setting of 4 for approximately 1 minute. The homogenate was centrifuged at 13,000 rpm for 20 minutes and 50 μL of the supernatant were treated exactly as described in above for plasma samples.
Bioanalysis Procedures: All samples, including plasma and brain homogenate extracts (including calibration standards and quality control (QC) samples prepared in K2EDTA mouse plasma), were extracted by protein precipitation. To each 50 μL aliquot of sample, 50 μL of IS solution (2500 ng/mL of Lacosamide in water:acetonitrile (1:1)) and 50 μL of 6% (v:v) phosphoric acid in water were added, then 200 μL acetonitrile was added. The samples in 1.7 mL tubes were vortex-mixed then centrifuged for 20 minutes at 13,000 rpm. Fifty microliters of the supernatant was mixed with 150 μL of water:acetonitrile (1:1) in a 96 well plate, which was centrifuged post-mixing for 20 minutes at 4000 rpm. The samples were then ready for UHPLC-MS/MS analysis.
Samples were analyzed for Compound A by a research-grade UHPLC-MS/MS method using the conditions listed below.
Samples were analyzed for Lacosamide by a research-grade UHPLC-MS/MS method using the conditions listed below.
At least three QC samples, one at each concentration, had to show back-calculated values within ±20% of their nominal concentrations for the whole sample batch to be valid.
The Blinding and Randomization, Clinical Observations, AC-MES Assay, Sample Collection and Preparation, Plasma and Brain Samples Analysis, and Bioanalysis Procedures in Example 4 were identical to those used in Example 2.
Sample concentration determination and Data Processing and Analysis in Example 4 was identical to Example 2.

[1] = Study 2C, analyte Compound A, 3 mg/kg PO 0.5 h + Lacosamide 10 mg/kg PO 2 h
[2] = Study 4F, Compound A 2 mg/kg PO (0.5 h) in combination with Cenobamate 5 mg/kg PO (2 h)
[3] = Study 4G, Compound A 0.5 mg/kg PO (0.5 h) in combination with Cenobamate 5 mg/kg PO (2 h)
[4] = Study 4G, Compound A 1 mg/kg PO (0.5 h) in combination with Cenobamate 5 mg/kg PO (2 h)

Cc1cc(N2CCc3cc(F)ccc3C2)cc(C)c1NC(=O)CC(C)(C)C [Compound A, N-[4-(6-fluoro-3,4-dihydro-1H-isoquinolin-2-yl)-2,6-dimethylphenyl]-3,3-dimethylbutanamide]
concentration at 0.5 h (2 mg/kg, Study 4F, Compound A 2 mg/kg PO alone, 0.5 h pre-treatment, CF-1 mice, read-out: Mean Brain): 250 nM
concentration at 0.5 h (2 mg/kg, Study 4F, Compound A 2 mg/kg PO alone, 0.5 h pre-treatment, CF-1 mice, read-out: Mean Plasma): 110 nM
concentration at 0.5 h (Study 2C, analyte Compound A, 3 mg/kg PO 0.5 h + Lacosamide 10 mg/kg PO 2 h, read-out: Mean Plasma): 279 nM
concentration at 0.5 h (Study 4F, analyte Compound A, 2 mg/kg in combination with Cenobamate 5 mg/kg, read-out: mean plasma concentration): 290 nM
concentration at 0.5 h (Study 4G, analyte Compound A, 0.5 mg/kg in combination with Cenobamate 5 mg/kg, read-out: mean total plasma concentration): 30 nM
concentration at 0.5 h (Study 4G, analyte Compound A, 1 mg/kg in combination with Cenobamate 5 mg/kg, read-out: mean total plasma concentration): 110 nM
concentration at 0.5 h (po, 2 mg/kg, Study 4F, Compound A 2 mg/kg PO, 0.5 h, alone, read-out: mean plasma concentration): 110 nM
Kp at 0.5 h (po, 2 mg/kg, Study 4F, Compound A 2 mg/kg PO alone, read-out: B/P Ratio (brain to plasma ratio)): 2.32
concentration at 2 h (Study 2A, Compound A 1 mg/kg PO, 0.5 h, 1 mg/kg, read-out: Mean Plasma): 80 nM
concentration at 2 h (Study 2A, Compound A 5 mg/kg PO, 0.5 h, 5 mg/kg, read-out: Mean Plasma): 280 nM
concentration at 2 h (Study 2A, Compound A 10 mg/kg PO, 0.5 h, 10 mg/kg, read-out: Mean Plasma): 370 nM
concentration at 2 h (Study 2B, Compound A 10 mg/kg PO, 0.5 h, 10 mg/kg, read-out: Mean Plasma): 550 nM
concentration at 2 h (Study 2C, Compound A 3 mg/kg PO, 0.5 h, alone, 3 mg/kg, read-out: Mean Plasma): 280 nM and 283 nM
B/P Ratio [1]: 1.95 +
Mean Brain [1]: 0.54 + μM
Mean Plasma [1]: 0.28 + μM
concentration at 2 h (Study 4B, Compound A 5 mg/kg PO, 0.5 h, 5 mg/kg, read-out: mean plasma concentration): 470 nM
Mean Brain, Compound A [2]: 0.67 µM
Mean Plasma, Compound A [2]: 0.29 µM
B/P Ratio, Compound A (Study 4F, Compound A 2 mg/kg PO in combination with Cenobamate 5 mg/kg PO): 2.34
Mean Brain, Compound A [3]: 0.09 µM
Mean Plasma, Compound A [3]: 0.03 µM
B/P Ratio, Compound A (Study 4G, Compound A 0.5 mg/kg PO in combination with Cenobamate 5 mg/kg PO): 3.22
Mean Brain, Compound A [4]: 0.30 µM
Mean Plasma, Compound A [4]: 0.11 µM
B/P Ratio, Compound A (Study 4G, Compound A 1 mg/kg PO in combination with Cenobamate 5 mg/kg PO): 2.76
concentration at 30 min (male, 1 mg/kg, Study 4A, Compound A 1 mg/kg single oral dose, 30 min pre-treatment, CF-1 mice, read-out: Brain): 150 nM
concentration at 30 min (male, 1 mg/kg, Study 4A, Compound A 1 mg/kg single oral dose, 30 min pre-treatment, CF-1 mice, read-out: Plasma): 80 nM
concentration at 30 min (male, 5 mg/kg, Study 4A, Compound A 5 mg/kg single oral dose, 30 min pre-treatment, CF-1 mice, read-out: Brain): 400 nM
concentration at 30 min (male, 5 mg/kg, Study 4A, Compound A 5 mg/kg single oral dose, 30 min pre-treatment, CF-1 mice, read-out: Plasma): 280 nM
concentration at 30 min (male, 10 mg/kg, Study 4A, Compound A 10 mg/kg single oral dose, 30 min pre-treatment, CF-1 mice, read-out: Brain): 500 nM
concentration at 30 min (male, 10 mg/kg, Study 4A, Compound A 10 mg/kg single oral dose, 30 min pre-treatment, CF-1 mice, read-out: Plasma): 370 nM
Kp at 0.5 h (male, po, 1 mg/kg, Study 2A, Compound A 1 mg/kg PO, 0.5 h, read-out: B/P Ratio): 1.85
concentration at 0.5 h (male, po, 1 mg/kg, Study 2A, Compound A 1 mg/kg PO, 0.5 h, read-out: Mean Brain): 150 nM
concentration at 0.5 h (male, po, 1 mg/kg, Study 2A, Compound A 1 mg/kg PO, 0.5 h, read-out: Mean Plasma): 81.5 nM
concentration at 0.5 h (male, po, 1 mg/kg, Study 4A, Compound A 1 mg/kg PO, 0.5 h, read-out: mean plasma concentration): 80 nM
Kp at 30 min (male, po, 1 mg/kg, Study 4A, Compound A 1 mg/kg single oral dose, read-out: B/P Ratio (brain to plasma ratio)): 1.85
Kp at 0.5 h (male, po, 3 mg/kg, Study 2C, Compound A 3 mg/kg PO, 0.5 h, alone, read-out: B/P Ratio): 1.79
concentration at 0.5 h (male, po, 3 mg/kg, Study 2C, Compound A 3 mg/kg PO, 0.5 h, alone, read-out: Mean Brain): 510 nM
concentration at 0.5 h (male, po, 3 mg/kg, Study 2C, Compound A 3 mg/kg PO, 0.5 h, alone, read-out: Mean Plasma): 284 nM
concentration at 0.5 h (male, po, 3 mg/kg, Study 4C, Compound A 3 mg/kg PO, 0.5 h, read-out: plasma concentration): 280 nM
concentration at 30 min (male, po, 3 mg/kg, Study 4C, Compound A 3 mg/kg single oral dose, CF-1 mice, read-out: Mean Brain): 510 nM
concentration at 30 min (male, po, 3 mg/kg, Study 4C, Compound A 3 mg/kg single oral dose, CF-1 mice, read-out: Mean Plasma): 280 nM
Kp at 30 min (male, po, 3 mg/kg, Study 4C, Compound A 3 mg/kg single oral dose, read-out: B/P Ratio (brain to plasma ratio)): 1.79
Kp at 0.5 h (male, po, 5 mg/kg, Study 2A, Compound A 5 mg/kg PO, 0.5 h, read-out: B/P Ratio): 1.45
concentration at 0.5 h (male, po, 5 mg/kg, Study 2A, Compound A 5 mg/kg PO, 0.5 h, read-out: Mean Brain): 400 nM
concentration at 0.5 h (male, po, 5 mg/kg, Study 2A, Compound A 5 mg/kg PO, 0.5 h, read-out: Mean Plasma): 276 nM
Kp at 0.5 h (male, po, 5 mg/kg, Study 2B, Compound A 5 mg/kg PO, 0.5 h, read-out: B/P Ratio): 1.51
concentration at 0.5 h (male, po, 5 mg/kg, Study 2B, Compound A 5 mg/kg PO, 0.5 h, read-out: Mean Brain): 710 nM
concentration at 0.5 h (male, po, 5 mg/kg, Study 4A, Compound A 5 mg/kg PO, 0.5 h, read-out: mean plasma concentration): 280 nM
Kp at 30 min (male, po, 5 mg/kg, Study 4A, Compound A 5 mg/kg single oral dose, read-out: B/P Ratio (brain to plasma ratio)): 1.45
concentration at 0.5 h (male, po, 5 mg/kg, Study 4B, Compound A 5 mg/kg PO, 0.5 h, read-out: mean plasma concentration): 470 nM
concentration at 30 min (male, po, 5 mg/kg, Study 4B, Compound A 5 mg/kg single oral dose, CF-1 mice, read-out: Mean Brain): 710 nM
concentration at 30 min (male, po, 5 mg/kg, Study 4B, Compound A 5 mg/kg single oral dose, CF-1 mice, read-out: Mean Plasma): 1000 nM
Kp at 30 min (male, po, 5 mg/kg, Study 4B, Compound A 5 mg/kg single oral dose, read-out: B/P Ratio (brain to plasma ratio)): 1.51
Kp at 0.5 h (male, po, 7.5 mg/kg, Study 2B, Compound A 7.5 mg/kg PO, 0.5 h, read-out: B/P Ratio): 1.64
concentration at 0.5 h (male, po, 7.5 mg/kg, Study 2B, Compound A 7.5 mg/kg PO, 0.5 h, read-out: Mean Brain): 870 nM
concentration at 0.5 h (male, po, 7.5 mg/kg, Study 2B, Compound A 7.5 mg/kg PO, 0.5 h, read-out: Mean Plasma): 530 nM
concentration at 30 min (male, po, 7.5 mg/kg, Study 4B, Compound A 7.5 mg/kg single oral dose, CF-1 mice, read-out: Mean Brain): 870 nM
concentration at 30 min (male, po, 7.5 mg/kg, Study 4B, Compound A 7.5 mg/kg single oral dose, CF-1 mice, read-out: Mean Plasma): 530 nM
Kp at 30 min (male, po, 7.5 mg/kg, Study 4B, Compound A 7.5 mg/kg single oral dose, read-out: B/P Ratio (brain to plasma ratio)): 1.64
Kp at 0.5 h (male, po, 10 mg/kg, Study 2A, Compound A 10 mg/kg PO, 0.5 h, read-out: B/P Ratio): 1.36
concentration at 0.5 h (male, po, 10 mg/kg, Study 2A, Compound A 10 mg/kg PO, 0.5 h, read-out: Mean Brain): 500 nM
concentration at 0.5 h (male, po, 10 mg/kg, Study 2A, Compound A 10 mg/kg PO, 0.5 h, read-out: Mean Plasma): 366 nM
Kp at 0.5 h (male, po, 10 mg/kg, Study 2B, Compound A 10 mg/kg PO, 0.5 h, read-out: B/P Ratio): 1.64
concentration at 0.5 h (male, po, 10 mg/kg, Study 2B, Compound A 10 mg/kg PO, 0.5 h, read-out: Mean Brain): 910 nM
concentration at 0.5 h (male, po, 10 mg/kg, Study 2B, Compound A 10 mg/kg PO, 0.5 h, read-out: Mean Plasma): 553 nM
concentration at 0.5 h (male, po, 10 mg/kg, Study 4A, Compound A 10 mg/kg PO, 0.5 h, read-out: mean plasma concentration): 370 nM
Kp at 30 min (male, po, 10 mg/kg, Study 4A, Compound A 10 mg/kg single oral dose, read-out: B/P Ratio (brain to plasma ratio)): 1.36
concentration at 0.5 h (male, po, 10 mg/kg, Study 4B, Compound A 10 mg/kg PO, 0.5 h, read-out: mean plasma concentration): 550 nM
concentration at 30 min (male, po, 10 mg/kg, Study 4B, Compound A 10 mg/kg single oral dose, CF-1 mice, read-out: Mean Brain): 910 nM
concentration at 30 min (male, po, 10 mg/kg, Study 4B, Compound A 10 mg/kg single oral dose, CF-1 mice, read-out: Mean Plasma): 550 nM
Kp at 30 min (male, po, 10 mg/kg, Study 4B, Compound A 10 mg/kg single oral dose, read-out: B/P Ratio (brain to plasma ratio)): 1.64
